test: Human HepG2 cell viability assay in 384 well format; type: toxicity, cell-based; set-up: dose 125 nL, time 70.5 hour; cytotoxicity at 70.5 h: concentration not given beside the values; conditions: HepG2 cells, read-out: Inhibition

First: Cc1ccc(C)c(CS(=O)(=O)CC(=O)Nc2ccc(F)cc2F)c1
Second: Cc1ccccc1CS(=O)(=O)CC(=O)N(C)Cc1ccccc1
The cytotoxicity at 70.5 h of the first is higher: -7.2% for the first, -9.59% for the second.

Going from CN(C)c1cccc(C(=O)Nc2ccn(CCc3ccncc3)n2)c1 to Cc1nn(CC(=O)NCCc2ccncc2)c(=O)n1Cc1ccccc1, the cytotoxicity at 70.5 h rises from -12.6% to 1.25%.

Compared with CC(=O)N1N=C(c2cccs2)OC1C(=O)Nc1ccc(C(C)C)cc1 (configuration not stated), Cc1ccc(NC(=O)c2ccc(=O)n(CC(=O)Nc3nccs3)n2)cc1 is higher in cytotoxicity at 70.5 h: -2.48% for the first, 23.1% for the second.

Going from CN1CCN(C2CCN(c3cnc4ccccc4n3)CC2)C1=O to Cc1nc(CN2CCC(c3cc(N4CCCC4)ncn3)CC2)cs1, the cytotoxicity at 70.5 h rises from -12.4% to 4.68%.

First: CC(C)Cc1noc(CN2CCN(C(=O)c3ccccc3F)CC2)n1
Second: Cc1cc(C(=O)N2CCN(CC(O)Cn3cccn3)CC2)c(C)o1 (configuration not stated)
The cytotoxicity at 70.5 h of the first is higher: 13.7% for the first, 6.38% for the second.

First: CC(C)N(C)C(=O)C1=NOC2(CCN(C(=O)c3ccncc3)C2)C1 (configuration not stated)
Second: O=C(c1ccsc1)N1CCOC2(CCN(Cc3cccnc3)CC2)C1
The cytotoxicity at 70.5 h of the first is lower: -8.56% for the first, -1.16% for the second.

Compared with Cc1nnc(NC(=O)NCc2ccc(OC(C)C)nc2)s1, CC(C)c1sc(Br)nc1C(=O)NCc1cccnc1 is higher in cytotoxicity at 70.5 h: 20.6% for the first, 23.2% for the second.

Going from COC(=O)c1cccc(C(=O)NCc2ccco2)n1 to COCC(=O)NCc1cc(=O)n2c(n1)CN(Cc1ccco1)CCC2, the cytotoxicity at 70.5 h rises from -15.9% to 2.27%.

Compared with N[C@@H]1c2ccccc2C2(CCN(C(=O)c3ccc(Cl)cn3)CC2)[C@H]1O, COCCOCC(=O)N1CCC(O)(c2ccc3nc(C)ccc3c2)CC1 is lower in cytotoxicity at 70.5 h: 18.5% for the first, -5.95% for the second.

Compared with CSc1nccn1-c1cccc(C(=O)NCC2CC2)c1, O=C(O)Cc1cccc(-n2ccnc2-c2ccc(F)c(Cl)c2)c1 is lower in cytotoxicity at 70.5 h: 0.766% for the first, -0.808% for the second.

Compared with COc1ccccc1N1CCN(C(=O)COc2c(C)occc2=O)CC1, COc1ccccc1OCc1cc(C(=O)N2CCN[C@H](C)C2)n[nH]1 is lower in cytotoxicity at 70.5 h: 6.76% for the first, -5.99% for the second.

Going from O=C(CCO)N1C[C@H]2CN(c3ccccc3)C(=O)[C@H]2C1 to O=C(CCc1ccccc1)N1C[C@H]2CCN[C@H]2C1, the cytotoxicity at 70.5 h rises from -8.23% to -7.82%.

Going from Fc1cccc(Oc2ccc(CNCC3CNc4ccnn4C3)cn2)c1 (configuration not stated) to NCC1Cn2nnc(-c3cccc(F)c3)c2CO1 (configuration not stated), the cytotoxicity at 70.5 h falls from 0.403% to -4.77%.

First: Cn1cc(CN2C[C@@H]3[C@@H](C2)OCC(=O)N3Cc2ccncc2)cn1
Second: O=C(NC[C@]12COC[C@H]1CN(Cc1ccncc1)C2)c1ccco1
The cytotoxicity at 70.5 h of the first is higher: -6.23% for the first, -10.9% for the second.

Compared with CC(C)c1cc(NC(=O)CNC2CCCN(c3cccnn3)C2)on1 (configuration not stated), CNC(=O)COc1cccc(CNC(=O)c2c(C)noc2C(C)C)c1 is lower in cytotoxicity at 70.5 h: 3.11% for the first, -13.2% for the second.

First: CC(C)OCCC(=O)Nc1cccc(N2CCN(CC3CC3)CC2)c1
Second: COC(=O)N1CCCCC1C(=O)N1CCN(c2cccnc2)CC1 (configuration not stated)
The cytotoxicity at 70.5 h of the first is lower: -4.83% for the first, 6.34% for the second.

Compared with CO[C@H]1CO[C@@]2(CCCN(C(=O)N3CCCC3)C2)C1, CCN1CCOCC2(CCCN(C(=O)c3ccncc3F)C2)C1 (configuration not stated) is lower in cytotoxicity at 70.5 h: 1.63% for the first, -3.01% for the second.

Going from COCC1CN(C(=O)Nc2cc(Br)ccc2F)CCO1 (configuration not stated) to CCn1cnc(NC(=O)N2CCC(c3ccc(Cl)cc3)C2)n1 (configuration not stated), the cytotoxicity at 70.5 h rises from -10.1% to 11.3%.

Going from C[C@@H]1CN(Cc2ccoc2)C[C@]12CCN(CC(=O)N(C)C)C2=O to O=C(c1cscn1)N1CCC2(CN(Cc3ccoc3)C2)C1, the cytotoxicity at 70.5 h rises from -12% to -9.97%.

Going from Cc1cccc(CN2CCC3(CCCN(C(=O)NC4CC4)C3)C2=O)n1 (configuration not stated) to Cc1cc(-c2ccc(=O)n(C3CCN(C(=O)C4CC4)CC3)n2)c(C)o1, the cytotoxicity at 70.5 h falls from 25.5% to -2.33%.

First: Cc1ccnc(NCCNC(=O)c2ccccc2NCC(=O)O)c1
Second: CS(=O)(=O)c1ccc(-c2ccccc2C(=O)O)cc1
The cytotoxicity at 70.5 h of the first is higher: 5.62% for the first, -4.68% for the second.

First: Cc1nc2ccccc2n1Cc1cc(C(=O)NC2CCOC2)no1 (configuration not stated)
Second: Cc1nc2ccccc2c(=O)n1CCCC(=O)N1CCNC(=O)CC1
The cytotoxicity at 70.5 h of the first is lower: -18.8% for the first, 2.21% for the second.

Compared with Cc1cc(C)n(-c2cncc(NCCNS(C)(=O)=O)n2)n1, CN(C)c1cc(CNc2cncc(-n3cccn3)n2)ccn1 is lower in cytotoxicity at 70.5 h: 2.9% for the first, -15.7% for the second.

Going from CC(C)OCc1cccc(NC(=O)N(C)Cc2ncnn2C)c1 to CCN(Cc1cccc(NC(=O)COC)c1)C(C)=O, the cytotoxicity at 70.5 h rises from -9.1% to 27.5%.

Compared with CCN1CCN(C(=O)CCC2CCN(C(=O)CCSC)CC2)CC1, CC(C)N1CCC(CC(=O)N2CCN(Cc3nccn3C)CC2)CC1 is lower in cytotoxicity at 70.5 h: 22.6% for the first, -6.78% for the second.

Compared with COCCN1CC[C@H]2OCC[C@@H](C(=O)Nc3cccnc3)[C@@H]2C1, O=C(Cc1cccs1)N1C[C@@H]2OCCN(CC3CCCC3)[C@@H]2C1 is lower in cytotoxicity at 70.5 h: 53% for the first, -3.16% for the second.

Going from CC(NCCCn1ccnc1)c1ccc(N2CCCS2(=O)=O)cc1 (configuration not stated) to Fc1ccc(N2CCN(CCCc3cn[nH]c3)CC2)cc1, the cytotoxicity at 70.5 h falls from 31% to 12%.

Going from NC(=O)CN1CC2(CCC1=O)CCN(Cc1cc(F)cc(F)c1)CC2 to Nc1cc(N2CCCC(Cc3ccc(F)cc3F)(C(=O)O)C2)ncn1 (configuration not stated), the cytotoxicity at 70.5 h falls from -0.945% to -5.98%.

Going from Cc1nnsc1C(=O)NCc1nn(C)c2c1COCC2 to CCCc1noc2ncc(C(=O)N3CCCC3c3cnn(C)c3)cc12 (configuration not stated), the cytotoxicity at 70.5 h rises from -13.8% to -6.19%.

Compared with Cc1ccsc1C(=O)N1CC(C(=O)NC(C)C)C2(CCOCC2)C1 (configuration not stated), Cc1ccc2nc(C)c(C)c(C(=O)N3CCC4(CCO4)CC3)c2c1 is lower in cytotoxicity at 70.5 h: 1.65% for the first, -5.61% for the second.

First: CC(CNS(=O)(=O)CCCC#N)c1ccsc1 (configuration not stated)
Second: N#Cc1cccc(S(=O)(=O)NC(=O)CCOCC(F)(F)F)c1
The cytotoxicity at 70.5 h of the first is higher: -3.18% for the first, -3.71% for the second.

Compared with COCC(=O)N1C[C@@H]2COC[C@]2(COC)C1, COCC(=O)N1Cc2ccnn2CC(COCCN(C)C)C1 (configuration not stated) is higher in cytotoxicity at 70.5 h: -9.06% for the first, -3.25% for the second.

Going from Cc1ncnc2c1CCN(c1cc(C(F)(F)F)ncn1)CC2 to Cc1cc(C(=O)N2CCOC[C@H](Oc3cccnc3)C2)c(C(F)(F)F)o1, the cytotoxicity at 70.5 h rises from -17.8% to 9.27%.

Going from COc1ncc(NCc2ccsc2)cc1C(N)=O to CNC(=O)c1ccc(CNc2ccncc2Cl)cc1, the cytotoxicity at 70.5 h falls from 3.63% to -98.3%.

Going from CCCN(Cc1cccnc1)C1CC(C)(C)NC(C)(C)C1 to COc1ccccc1CN(Cc1nc2c(cnn2C)c(=O)[nH]1)C1CC1, the cytotoxicity at 70.5 h rises from -3.34% to 28.9%.

Compared with CC(=O)NCCCC(=O)NC1(c2ccc(Cl)c(Cl)c2)CC1, O=C1CC(N(C(=O)c2ccc(Cl)c(Cl)c2)C2CC2)C(=O)N1 (configuration not stated) is lower in cytotoxicity at 70.5 h: 2.93% for the first, -4.14% for the second.

Going from CCC(C)NC(=O)c1snnc1-c1ccc(OC)cc1 (configuration not stated) to CCn1cnnc1CNC(=O)N1CCN(c2ccc(OC)cc2)CC1, the cytotoxicity at 70.5 h falls from 0.408% to -11.7%.

Going from CCNC(=O)[C@@H]1CN(Cc2ccccc2)C[C@H]1C(=O)c1ccc(F)cc1 to O=c1c(Cc2ccccc2)c(O)ccn1Cc1cccs1, the cytotoxicity at 70.5 h rises from -0.813% to 23.3%.

Going from COc1ccc(OC)c(C2CCN(c3ccc4cc[nH]c4n3)C2)c1 (configuration not stated) to CC(C)c1nnc2n1CCN(C(=O)c1ccc3cc[nH]c3c1)C2, the cytotoxicity at 70.5 h rises from -6.46% to 2.26%.

First: CCN(CC)S(=O)(=O)N(Cc1cccc(C)c1)Cc1ccccn1
Second: CCN(CC)c1ccc(C(=O)NCc2cccnc2-n2cncn2)cn1
The cytotoxicity at 70.5 h of the first is higher: 19.3% for the first, -10.7% for the second.

Going from O=C(NCC1CC1)[C@H]1C[C@@H]2CN(C(=O)NCC3CCCCC3)C[C@H]1O2 to CC(C)(C)c1cc(C[C@H]2CNCC[C@H]2CC(=O)NC2CCCCC2)no1, the cytotoxicity at 70.5 h falls from 30.6% to 2.18%.

Going from COc1cccc(OC2CN(C(=O)Cn3nc4ccccc4n3)C2)c1 to O=C(CCn1cccc1)N1CCc2[nH]nc(COc3ccccc3)c2C1, the cytotoxicity at 70.5 h falls from -5.28% to -7.09%.

Compared with O=C(NCC(=O)N1CCCCC1)c1ccoc1, CC(CNC(=O)c1cc(Cl)ccc1I)N1CCCC1 (configuration not stated) is lower in cytotoxicity at 70.5 h: -7.84% for the first, -17.1% for the second.

Going from CC(C)c1n[nH]c(C2CN(C(=O)CCn3ccccc3=O)CCO2)n1 (configuration not stated) to O=C(CCOc1ccccc1F)N1CCC(O)CC1, the cytotoxicity at 70.5 h falls from -2.51% to -9.54%.

Going from CCn1ncc2c1C(COC)CN(c1ncc(F)cn1)C2 (configuration not stated) to COc1ccc(Cc2ncc3c(n2)CN(C(=O)C2COCCO2)C3)cc1 (configuration not stated), the cytotoxicity at 70.5 h rises from -9.93% to -3.32%.

Going from COC(=O)Cn1c(C)cc(=O)n2nc(-c3cccs3)nc12 to COCCNC(=O)Cn1c(C)cc2nc(SC)n(CC(C)C)c(=O)c21, the cytotoxicity at 70.5 h falls from 13.3% to 2.11%.

Compared with Cn1cnc2ccc(NC(=O)CCCn3cccn3)cc2c1=O, NC(=O)Cn1c(CO)cnc1SCC(=O)NCc1ccccc1Cl is higher in cytotoxicity at 70.5 h: -13.5% for the first, 15.7% for the second.

Compared with CC(C)(C)OC(=O)NCC1CCN(C(=O)c2ccccc2O)CC1, CO[C@@H]1CN(c2ccccc2)S(=O)(=O)[C@@]12CCN(C)C2 is lower in cytotoxicity at 70.5 h: -7.62% for the first, -7.99% for the second.

Compared with CNc1cc(CNC(=O)c2ccncc2)nc(-c2ccncc2)n1, Cc1ccccc1CNCc1cc(Cl)ccc1O is lower in cytotoxicity at 70.5 h: -2.12% for the first, -11.5% for the second.

Compared with Cc1ccc2nc(C)c(C)c(C(=O)N3CCS(=O)(=O)CC3)c2c1, Cc1cc(C(=O)N2CCN(c3nc4c(C)cccc4s3)CC2)no1 is higher in cytotoxicity at 70.5 h: -12.9% for the first, 9.18% for the second.

Going from COCCCNC1N=C(n2nc(C)cc2C)Nc2sc3c(c21)CCCC3 (configuration not stated) to CCc1cc(N2CCCNCC2)n2nc(C)c(C)c2n1, the cytotoxicity at 70.5 h falls from 8.46% to -5.51%.

First: CCc1cc(CN2C[C@H]3CC[C@@H]2CN(C2Cc4ccccc4C2)C3)on1
Second: Cc1cnn(C2CN(Cc3noc(C4CC4)n3)C2)c1
The cytotoxicity at 70.5 h of the first is higher: -2.96% for the first, -4.77% for the second.

Compared with CC(=O)c1cccc(-c2nc3c([nH]2)CCNC3)c1F, COc1cccc(Cn2cc(N3C(=O)[C@H]4CCCC[C@H]4C3=O)cn2)c1 is higher in cytotoxicity at 70.5 h: -13.2% for the first, 26.3% for the second.

First: CCc1csc(CNC2CCN(c3ccc(C)cc3)CC2)n1
Second: Cc1ccc(S(=O)(=O)NC[C@H]2OC[C@@H](NCc3cccs3)[C@@H]2O)cc1
The cytotoxicity at 70.5 h of the first is lower: 2.12% for the first, 7.42% for the second.

Compared with Cc1ccsc1[C@@H]1CCN(C(=O)CCc2cc(O)no2)C[C@H]1O, CCC(C)(C)NC(=O)Cn1nc(C)nc1-c1cccc(C)c1 is higher in cytotoxicity at 70.5 h: -15.1% for the first, -3.94% for the second.

Going from CC(C1CCN(Cc2cnn(C)c2C2CC2)CC1)N1CCN(C)CC1 (configuration not stated) to CC(C)(C)CN1CCC(c2nnc(Cn3ccnc3)n2C2CC2)CC1, the cytotoxicity at 70.5 h falls from -3.33% to -3.87%.

Source: ChEMBL document CHEMBL3507680, “University of Dundee, Gates Library screen for HepG2 cell viability”
